From ChEMBL document CHEMBL1201862, “PubChem BioAssay data set” (2004)
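Protocol summary: plate cells (96-well), add compound at 5 concentrations, incubate 48 h, interpolate endpoints linearly. GI50 marks 50% less growth.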 Activity calls are given as the source filed them. No stated cut-off is given here; in the data, active = GI50 up to about 1.1 µM and inactive = higher.

Experiments:
Test in all cases: NCI tumour cell line growth inhibition, 48 h
BT-549 = test system: BT-549
NCI-H23 = test system: NCI-H23
IGROV-1 = test system: IGROV-1
T47D = test system: T47D
SK-MEL-5 = test system: SK-MEL-5
M14 = test system: M14
COLO 205 = test system: COLO 205
CCRF-CEM = test system: CCRF-CEM
HOP-62 = test system: HOP-62
MDA-N = test system: MDA-N
RPMI-8226 = test system: RPMI-8226
KM12 = test system: KM12
K562 = test system: K562
MDA-MB-231 = test system: MDA-MB-231
SK-MEL-2 = test system: SK-MEL-2
OVCAR-4 = test system: OVCAR-4
SF-295 = test system: SF-295
HCC 2998 = test system: HCC 2998

Measured: GI50

C/C(=N/O)c1cccc(Nc2nc3ccccc3c3[nH]c4ccccc4c23)c1
inactive: BT-549 12.8 µM | NCI-H23 3.08 µM | IGROV-1 3.19 µM | T47D 1.52 µM | SK-MEL-5 1.63 µM | M14 2.6 µM | COLO 205 2.24 µM | CCRF-CEM 2.39 µM | HOP-62 2.29 µM | MDA-N 1.82 µM | RPMI-8226 2.26 µM | KM12 2.58 µM | K562 3.44 µM | MDA-MB-231 2.95 µM | SK-MEL-2 2.25 µM | OVCAR-4 2.33 µM | SF-295 1.98 µM

COc1cc2c(cc1OC)C1=C(C=O)c3ccc(OC)c(OC)c3C(O)N1CC2 (configuration not stated)
inactive: BT-549 22.2 µM | NCI-H23 24.8 µM | T47D 21.1 µM | SK-MEL-5 13.3 µM | HCC 2998 13.2 µM | M14 21.9 µM | COLO 205 20.7 µM | CCRF-CEM 33.7 µM | HOP-62 39.7 µM | MDA-N 31.5 µM | RPMI-8226 7.53 µM | KM12 28.9 µM | MDA-MB-231 16.3 µM | SK-MEL-2 13.8 µM | OVCAR-4 40.3 µM | SF-295 24 µM

CC(=O)Nc1cc2c3c(c1)CCCN3CCC2
inactive: BT-549 > 100 µM | NCI-H23 > 100 µM | IGROV-1 > 100 µM | T47D 44.6 µM | SK-MEL-5 > 100 µM | HCC 2998 > 100 µM | M14 > 100 µM | COLO 205 > 100 µM | CCRF-CEM > 100 µM | MDA-N > 100 µM | RPMI-8226 > 100 µM | KM12 > 100 µM | K562 > 100 µM | MDA-MB-231 > 100 µM | SK-MEL-2 > 100 µM | OVCAR-4 > 100 µM | SF-295 > 100 µM

O=c1c2cc([N+](=O)[O-])ccc2nc2n1CCCCC2
inactive: BT-549 78 µM | NCI-H23 > 100 µM | IGROV-1 > 100 µM | T47D > 100 µM | SK-MEL-5 > 100 µM | M14 > 100 µM | COLO 205 > 100 µM | CCRF-CEM 21.5 µM | HOP-62 > 100 µM | MDA-N > 100 µM | RPMI-8226 > 100 µM | KM12 > 100 µM | K562 > 100 µM | MDA-MB-231 > 100 µM | SK-MEL-2 > 100 µM | OVCAR-4 > 100 µM | SF-295 > 100 µM

Cc1ccc(-c2cc(=O)c(=O)[nH][nH]2)cc1
inactive: BT-549 > 100 µM | NCI-H23 > 100 µM | IGROV-1 45.1 µM | T47D > 100 µM | SK-MEL-5 > 100 µM | HCC 2998 > 100 µM | M14 > 100 µM | COLO 205 > 100 µM | CCRF-CEM > 100 µM | HOP-62 > 100 µM | MDA-N > 100 µM | KM12 > 100 µM | K562 > 100 µM | MDA-MB-231 > 100 µM | SK-MEL-2 > 100 µM | OVCAR-4 > 100 µM | SF-295 > 100 µM

C=CCOc1ccc(C2c3c(n[nH]c3O)CC(C)(O)C2C(=O)OC)cc1OC (configuration not stated)
inactive: BT-549 > 100 µM | NCI-H23 > 100 µM | IGROV-1 > 100 µM | T47D > 100 µM | SK-MEL-5 > 100 µM | HCC 2998 > 100 µM | M14 > 100 µM | COLO 205 > 100 µM | CCRF-CEM > 100 µM | HOP-62 > 100 µM | MDA-N > 100 µM | RPMI-8226 > 100 µM | KM12 > 100 µM | MDA-MB-231 > 100 µM | SK-MEL-2 > 100 µM | OVCAR-4 > 100 µM | SF-295 > 100 µM

CN1C2CCC1CC(CCNC(c1ccccc1)c1ccccc1)C2 (configuration not stated)
inactive: BT-549 49.3 µM | NCI-H23 > 100 µM | IGROV-1 62.7 µM | T47D 25.5 µM | SK-MEL-5 12.9 µM | M14 11.6 µM | COLO 205 11.5 µM | CCRF-CEM 36 µM | HOP-62 19.7 µM | MDA-N 12.6 µM | RPMI-8226 20.2 µM | KM12 44 µM | K562 6.5 µM | MDA-MB-231 22.2 µM | SK-MEL-2 16.7 µM | OVCAR-4 > 100 µM | SF-295 22.5 µM

O=C1CC(C(COCc2ccccc2)OCc2ccccc2)CC(=O)N1 (configuration not stated)
inactive: BT-549 45 µM | NCI-H23 > 100 µM | IGROV-1 > 100 µM | T47D 86.3 µM | SK-MEL-5 > 100 µM | HCC 2998 > 100 µM | M14 > 100 µM | CCRF-CEM > 100 µM | HOP-62 > 100 µM | MDA-N > 100 µM | RPMI-8226 > 100 µM | KM12 > 100 µM | K562 > 100 µM | MDA-MB-231 > 100 µM | SF-295 > 100 µM

Cc1ccc(/C=C/C(=O)c2cc(CN(C)C)c(O)c(CN(C)C)c2)cc1
inactive: BT-549 18.3 µM | NCI-H23 29 µM | IGROV-1 27.4 µM | T47D 18 µM | SK-MEL-5 14.7 µM | HCC 2998 18.5 µM | M14 15.8 µM | COLO 205 10.6 µM | CCRF-CEM 14.4 µM | HOP-62 16.5 µM | MDA-N 15.2 µM | RPMI-8226 13.2 µM | KM12 12.1 µM | K562 13.8 µM | MDA-MB-231 13.8 µM | SF-295 13.8 µM

COc1ccc2nc3cc([N+](=O)[O-])ccc3c(Nc3ccc(S(=O)(=O)Nc4ncccn4)cc3)c2c1
inactive: BT-549 > 44.4 µM | IGROV-1 15 µM | T47D > 100 µM | SK-MEL-5 41.6 µM | HCC 2998 > 59 µM | M14 48.8 µM | COLO 205 40.3 µM | CCRF-CEM > 76.9 µM | HOP-62 > 64.9 µM | MDA-N > 89.1 µM | RPMI-8226 14.5 µM | KM12 31.7 µM | K562 35.4 µM | MDA-MB-231 > 60.1 µM | SK-MEL-2 > 43.4 µM | OVCAR-4 > 100 µM | SF-295 99.5 µM

CCc1cc(Cc2cc(CC)c(NC(=O)C(=O)CC(=O)c3sc(-c4cccnc4)nc3C)c(CC)c2)cc(CC)c1NC(=O)C(=O)CC(=O)c1sc(-c2cccnc2)nc1C
inactive: BT-549 > 100 µM | NCI-H23 > 100 µM | IGROV-1 > 100 µM | T47D > 100 µM | SK-MEL-5 > 100 µM | HCC 2998 > 100 µM | M14 > 100 µM | COLO 205 > 100 µM | CCRF-CEM > 100 µM | MDA-N > 100 µM | RPMI-8226 > 100 µM | KM12 > 100 µM | K562 > 100 µM | MDA-MB-231 > 100 µM | SK-MEL-2 > 100 µM | OVCAR-4 > 100 µM | SF-295 54.3 µM

C#CC1(O)C(COP(=O)(O)OC(COCCCCCCCCCCCCCCCCCC)COP(=O)(O)OCC2OC(n3cc(C)c(=O)[nH]c3=O)CC2N=[N+]=[N-])OC(n2ccc(N)nc2=O)C1O (configuration not stated)
inactive: BT-549 2.68 µM | NCI-H23 2.61 µM | T47D 3.73 µM | SK-MEL-5 2.75 µM | M14 8.02 µM | HOP-62 1.82 µM | MDA-N 1.14 µM | MDA-MB-231 2.39 µM | OVCAR-4 4.45 µM
active: IGROV-1 0.381 µM | COLO 205 0.512 µM | CCRF-CEM 0.562 µM | RPMI-8226 0.0644 µM | KM12 0.891 µM | K562 0.216 µM | SK-MEL-2 0.382 µM | SF-295 0.221 µM

C=C(CBr)CCCOCc1ccccc1
inactive: BT-549 15 µM | NCI-H23 13.9 µM | IGROV-1 21.4 µM | T47D 37.8 µM | SK-MEL-5 20.5 µM | M14 16.7 µM | COLO 205 27.6 µM | CCRF-CEM 26.1 µM | HOP-62 22.2 µM | MDA-N > 10 µM | RPMI-8226 29.7 µM | KM12 18.9 µM | K562 40.3 µM | MDA-MB-231 > 10 µM | SK-MEL-2 18.6 µM | OVCAR-4 17.6 µM | SF-295 36.1 µM

Cc1ccc(/C=N/n2c(Cc3ccccc3)n[nH]c2=O)cc1
inactive: BT-549 19.8 µM | NCI-H23 > 100 µM | IGROV-1 > 100 µM | T47D > 100 µM | SK-MEL-5 > 100 µM | HCC 2998 > 100 µM | M14 > 100 µM | COLO 205 > 100 µM | CCRF-CEM > 100 µM | HOP-62 37.2 µM | MDA-N > 100 µM | RPMI-8226 > 100 µM | KM12 > 100 µM | K562 > 100 µM | MDA-MB-231 > 100 µM | OVCAR-4 > 100 µM | SF-295 35.9 µM

Clc1ccc(Cc2nc3cc(Cl)c(Cl)cc3n2CC2CCCN3CCCCC23)cc1Cl (configuration not stated)
inactive: BT-549 8.43 µM | IGROV-1 3.89 µM | T47D 7.29 µM | SK-MEL-5 1.85 µM | HCC 2998 1.65 µM | M14 2.01 µM | COLO 205 1.94 µM | HOP-62 9.14 µM | MDA-N 4.79 µM | RPMI-8226 4.13 µM | KM12 2.19 µM | K562 3.26 µM | MDA-MB-231 3.27 µM | SK-MEL-2 6.34 µM | OVCAR-4 3.4 µM | SF-295 3.37 µM

Cn1c2ccccc2c2c3c(c4c5ccccc5n(C)c4c21)C(=O)c1ccccc1C3=O
inactive: BT-549 20.4 µM | NCI-H23 18.6 µM | IGROV-1 31 µM | T47D 13.2 µM | SK-MEL-5 56 µM | HCC 2998 96.8 µM | M14 76.9 µM | COLO 205 57.7 µM | CCRF-CEM > 100 µM | HOP-62 31.1 µM | MDA-N 72.8 µM | RPMI-8226 70 µM | KM12 86.9 µM | MDA-MB-231 19.6 µM | SK-MEL-2 40.3 µM | OVCAR-4 58.3 µM | SF-295 44.1 µM
